Experimental data reported in patent US20240158412A1 (Faxian Therapeutics, LLC, priority 2021, published 2024).

Biological target: USP7 (Homo sapiens, UniProt Q93009)
Experiment: biochemical
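Further: fluorescence intensity readout of USP7 enzymatic activity, reaction incubated 90 min at room temperature.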

Chain of USP7 (Q93009 whole entry): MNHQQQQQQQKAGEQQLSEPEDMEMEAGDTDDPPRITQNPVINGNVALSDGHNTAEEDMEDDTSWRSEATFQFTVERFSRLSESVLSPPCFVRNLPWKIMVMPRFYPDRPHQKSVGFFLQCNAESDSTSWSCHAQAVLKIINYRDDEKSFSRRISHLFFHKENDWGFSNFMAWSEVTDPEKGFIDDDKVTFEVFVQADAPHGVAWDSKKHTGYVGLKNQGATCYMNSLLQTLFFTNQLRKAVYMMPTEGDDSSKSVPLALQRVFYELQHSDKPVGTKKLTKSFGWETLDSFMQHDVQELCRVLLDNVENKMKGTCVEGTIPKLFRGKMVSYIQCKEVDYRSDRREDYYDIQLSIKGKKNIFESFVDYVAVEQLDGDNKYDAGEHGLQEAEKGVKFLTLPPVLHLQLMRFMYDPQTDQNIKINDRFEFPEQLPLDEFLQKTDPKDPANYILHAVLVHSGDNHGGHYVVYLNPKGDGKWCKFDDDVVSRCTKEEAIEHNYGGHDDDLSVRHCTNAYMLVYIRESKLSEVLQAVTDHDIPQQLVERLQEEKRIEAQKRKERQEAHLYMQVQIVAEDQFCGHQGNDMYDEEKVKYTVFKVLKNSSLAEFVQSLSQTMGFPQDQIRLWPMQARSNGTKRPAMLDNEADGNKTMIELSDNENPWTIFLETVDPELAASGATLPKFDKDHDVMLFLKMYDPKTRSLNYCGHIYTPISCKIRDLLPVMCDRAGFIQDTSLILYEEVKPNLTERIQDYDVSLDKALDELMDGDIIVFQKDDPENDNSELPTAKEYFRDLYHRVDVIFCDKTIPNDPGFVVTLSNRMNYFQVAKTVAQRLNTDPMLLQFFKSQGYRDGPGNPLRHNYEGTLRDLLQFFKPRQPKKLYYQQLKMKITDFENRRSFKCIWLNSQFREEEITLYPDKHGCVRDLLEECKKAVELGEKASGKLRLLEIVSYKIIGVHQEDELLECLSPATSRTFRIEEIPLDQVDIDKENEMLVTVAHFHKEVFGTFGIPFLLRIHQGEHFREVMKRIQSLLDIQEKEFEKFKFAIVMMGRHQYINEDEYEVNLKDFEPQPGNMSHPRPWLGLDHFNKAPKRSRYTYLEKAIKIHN

SMILES: O=C1CCC(=O)N1Cc1cc2nccc(-c3cc(C(F)(F)F)cc4c3N([C@@H]3CNC5(CCC5)C3)CCC4)c2s1 [Example 163, (S)-1-((7-(1-(5-azaspiro[3.4]octan-7-yl)-6-(trifluoromethyl)-1,2,3,4-tetrahydroquinolin-8-yl)thieno[3,2-b]pyridin-2-yl)methyl)pyrrolidine-2,5-dione]
- IC50: < 10 nM

SMILES: Cc1ccnn(Cc2cc3nccc(-c4cc(Cl)cc5c4N(C4CNC4)CCC5)c3s2)c1=O [Example 18, 2-[[7-[1-(azetidin-3-yl)-6-chloro-3,4-dihydro-2H-quinolin-8-yl]thieno[3,2-b]pyridin-2-yl]methyl]-4-methyl-pyridazin-3-one]
- IC50: 10 to 100 nM

SMILES: N#Cc1cc2c(c(-c3ccnc4cc(CN5C(=O)C6CC6C5=O)sc34)c1)N([C@@H]1CN[C@@H](CO)C1)CCO2 (stereo partly drawn) [Example 215, 5-(2-((2,4-dioxo-3-azabicyclo[3.1.0]hexan-3-yl)methyl)thieno[3,2-b]pyridin-7-yl)-4-((3S,5R)-5-(hydroxymethyl)pyrrolidin-3-yl)-3,4-dihydro-2H-benzo[b][1,4]oxazine-7-carbonitrile]
- IC50: < 10 nM

SMILES: Cn1ccc(=O)n(Cc2cc3nccc(-c4cc(C#N)cc5c4N(C4CNC(C)(C)C4)CCC5)c3s2)c1=O (stereo in doubt) [Example 121, (S)-1-(5,5-dimethylpyrrolidin-3-yl)-8-(2-((3-methyl-2,6-dioxo-3,6-dihydropyrimidin-1(2H)-yl)methyl)thieno[3,2-b]pyridin-7-yl)-1,2,3,4-tetrahydroquinoline-6-carbonitrile]
- IC50: < 10 nM

SMILES: COC(=O)[C@@]1(C)C[C@H](N2CCCc3cc(Cl)cc(-c4ccnc5cc(CN6C(=O)CCC6=O)sc45)c32)CN1 (single isomer, unassigned) [Example 203]
- IC50: < 10 nM

SMILES: CC1(CN2CC(=O)N(Cc3cc4nccc(-c5cc(Cl)cc6c5N(C5CNC5)CCC6)c4s3)C(=O)C2)CC1 [Example 29, 1-((7-(1-(azetidin-3-yl)-6-chloro-1,2,3,4-tetrahydroquinolin-8-yl)thieno[3,2-b]pyridin-2-yl)methyl)-4-((1-methylcyclopropyl)methyl)piperazine-2,6-dione]
- IC50: 10 to 100 nM

SMILES: Cc1cnn(Cc2cc3nccc(-c4cc(C#N)cc5c4N([C@@H]4CN(C)C(C)(C)C4)CCC5)c3s2)c(=O)c1 [Example 122, (S)-8-(2-((4-methyl-6-oxopyridazin-1(6H)-yl)methyl)thieno[3,2-b]pyridin-7-yl)-1-(1,5,5-trimethylpyrrolidin-3-yl)-1,2,3,4-tetrahydroquinoline-6-carbonitrile]
- IC50: < 10 nM

SMILES: O=c1ccn(CC(F)(F)F)c(=O)n1Cc1cc2ncnc(-c3cc(Cl)cc4c3N([C@@H]3CCNC3)CCC4)c2s1 (single isomer, unassigned) [Example 90]
- IC50: < 10 nM

SMILES: O=C1CCC(=O)N1Cc1cc2nccc(-c3cc(Cl)cc4c3N(C3CNC5(CCC5)C3)CCO4)c2s1 (single isomer, unassigned) [Example 171b]
- IC50: < 10 nM

SMILES: O=c1cc(CC(F)F)cnn1Cc1cc2nccc(-c3cc(Cl)cc4c3N([C@H]3CCNC3)CCC4)c2s1 [Example 105, (S)-2-((7-(6-chloro-1-(pyrrolidin-3-yl)-1,2,3,4-tetrahydroquinolin-8-yl)thieno[3,2-b]pyridin-2-yl)methyl)-5-(2,2-difluoroethyl)pyridazin-3(2H)-one]
- IC50: < 10 nM

SMILES: Oc1ccnn1Cc1cc2nccc(-c3cc(Cl)cc4c3N(C3CNC3)CCC4)c2s1 [Example 37, 2-[[7-[1-(azetidin-3-yl)-6-chloro-3,4-dihydro-2H-quinolin-8-yl]thieno[3,2-b]pyridin-2-yl]methyl]pyrazol-3-ol]
- IC50: > 1000 nM

SMILES: CC1(C)C[C@H](N2CCCc3cc(Cl)cc(-c4ccnc5cc(Cn6c(=O)ccn(CC(F)(F)F)c6=O)sc45)c32)CN1 (single isomer, unassigned) [Example 118b]
- IC50: < 10 nM

SMILES: CN1C(=O)N(Cc2cc3nccc(-c4cc(Cl)cc5c4N(C4CNC4)CCC5)c3s2)C(=O)C12CCC2 [Example 31, 7-((7-(1-(azetidin-3-yl)-6-chloro-1,2,3,4-tetrahydroquinolin-8-yl)thieno[3,2-b]pyridin-2-yl)methyl)-5-methyl-5,7-diazaspiro[3.4]octane-6,8-dione]
- IC50: 101 to 1000 nM

SMILES: O=c1c2ccccc2ncn1Cc1cc2nccc(-c3cc(Cl)cc4c3N(C3CNC3)CCC4)c2s1 [Example 19, 3-[[7-[1-(azetidin-3-yl)-6-chloro-3,4-dihydro-2H-quinolin-8-yl]thieno[3,2-b]pyridin-2-yl]methyl]quinazolin-4-one]
- IC50: > 1000 nM

SMILES: O=C1CCC(=O)N1Cc1cc2nccc(-c3cc(Cl)cc4c3N([C@@H]3CN(CCO)C5(CCC5)C3)CCC4)c2s1 [Example 141, (S)-1-((7-(6-chloro-1-(5-(2-hydroxyethyl)-5-azaspiro[3.4]octan-7-yl)-1,2,3,4-tetrahydroquinolin-8-yl)thieno[3,2-b]pyridin-2-yl)methyl)pyrrolidine-2,5-dione]
- IC50: < 10 nM

SMILES: O=C1CCC(=O)N1Cc1cc2nccc(-c3cc(Cl)cc4c3N(C3CNC5(CC(F)C5)C3)CCC4)c2s1 (stereo not shown) [Example 211, 1-((7-(6-chloro-1-(2-fluoro-5-azaspiro[3.4]octan-7-yl)-1,2,3,4-tetrahydroquinolin-8-yl)thieno[3,2-b]pyridin-2-yl)methyl)pyrrolidine-2,5-dione]
- IC50: < 10 nM

SMILES: C[C@H]1CCc2cc(Cl)cc(-c3ccnc4cc(CN5C(=O)CCC5=O)sc34)c2N1[C@@H]1CCNC1 (single isomer, unassigned) [Example 44a]
- IC50: 10 to 100 nM

SMILES: CC1(C)CC(N2CCOc3cc(C#N)cc(-c4ccnc5cc(Cn6c(=O)ccn(CC(F)(F)F)c6=O)sc45)c32)CN1 (single isomer, unassigned) [Example 133a]
- IC50: < 10 nM

SMILES: O=C1CCC(=O)N1Cc1cc2nccc(-c3cc(Cl)cc4c3N(C3CNC5(CC(F)C5)C3)CCC4)c2s1 (single isomer, unassigned) [Example 177a]
- IC50: < 10 nM

SMILES: CC1(C)C2C(=O)N(Cc3cc4nccc(-c5cc(Cl)cc6c5N([C@@H]5CNC7(CCC7)C5)CCO6)c4s3)C(=O)C21 (stereo partly drawn) [Example 172, 3-((7-(7-chloro-4-((S)-5-azaspiro[3.4]octan-7-yl)-3,4-dihydro-2H-benzo[b][1,4]oxazin-5-yl)thieno[3,2-b]pyridin-2-yl)methyl)-6,6-dimethyl-3-azabicyclo[3.1.0]hexane-2,4-dione]
- IC50: 10 to 100 nM

SMILES: CC(C)(C)c1cnn(Cc2cc3nccc(-c4cc(C#N)cc5c4N([C@@H]4CN[C@@](C)(CO)C4)C(=O)CO5)c3s2)c(=O)c1 [Example 225, 5-(2-((4-(tert-butyl)-6-oxopyridazin-1(6H)-yl)methyl)thieno[3,2-b]pyridin-7-yl)-4-((3S,5R)-5-(hydroxymethyl)-5-methylpyrrolidin-3-yl)-3-oxo-3,4-dihydro-2H-benzo[b][1,4]oxazine-7-carbonitrile]
- IC50: < 10 nM

SMILES: CN1CC[C@@H](N2CCCc3cc(Cl)cc(-c4ccnc5cc(CN6C(=O)CCC6=O)sc45)c32)C1 [Example 60, (R)-1-((7-(6-chloro-1-(1-methylpyrrolidin-3-yl)-1,2,3,4-tetrahydroquinolin-8-yl)thieno[3,2-b]pyridin-2-yl)methyl)pyrrolidine-2,5-dione]
- IC50: < 10 nM
